From patent US11590139B2, “Substituted aminopurine compounds, compositions thereof, and methods of treatment therewith” (Signal Pharmaceuticals, LLC, priority 2014, dated 2023)

Test system: Lox-IMVI melanoma cell line
Assay: Lox-IMVI anti-proliferative assay (growth inhibition, Cell Titer-Glo)
Format: cell-based, human
Conditions: Homo sapiens; Lox-IMVI anti-proliferative assay, IC50 activity level; read-out: Activity
Method in brief: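 RPMI/10% FBS; cmpd 0.5 nM–10 μM, 3-fold ×10, duplicate, 0.2% DMSO final; 72 h, 37 °C, 5% CO2. ATP-luminescence readout at t0 and 72 h. IC50 = 50% of DMSO control, 4-parameter logistic fit.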

| SMILES | IC50 |
| --- | --- |
| C[C@@H](CO)Nc1ncc2nc(Nc3c(Cl)cc(F)cc3Cl)n([C@H]3CC[C@@](C)(C(N)=O)CC3)c2n1 [Example 551, (1R,4s)-4-(8-(2,6-dichloro-4-fluorophenylamino)-2-((S)-1-hydroxypropan-2-ylamino)-9H-purin-9-yl)-1-methylcyclohexanecarboxamide] | < 0.25 µM |
| C[C@@H](CO)Nc1ncc2nc(Nc3c(F)cc(C#N)cc3Cl)n([C@H]3CC[C@@](C)(C(N)=O)CC3)c2n1 [Example 552, (1R,4s)-4-(8-(2-chloro-4-cyano-6-fluorophenylamino)-2-((S)-1-hydroxypropan-2-ylamino)-9H-purin-9-yl)-1-methylcyclohexanecarboxamide] | < 0.25 µM |
| C[C@@H](CO)Nc1ncc2nc(Nc3c(Cl)cc(C#N)cc3Cl)n([C@H]3CC[C@@](C)(C(N)=O)CC3)c2n1 [Example 553, (1R,4s)-4-(8-(2,6-dichloro-4-cyanophenylamino)-2-((S)-1-hydroxypropan-2-ylamino)-9H-purin-9-yl)-1-methylcyclohexanecarboxamide] | < 0.25 µM |
| C[C@@H](CO)Nc1ncc2nc(Nc3c(Cl)cc(C(F)(F)F)cc3Cl)n([C@H]3CC[C@@](C)(C(N)=O)CC3)c2n1 [Example 554, (1R,4s)-4-(8-(2,6-dichloro-4-(trifluoromethyl)phenylamino)-2-((S)-1-hydroxypropan-2-ylamino)-9H-purin-9-yl)-1-methylcyclohexanecarboxamide] | 0.5 to 1 µM |
| N#Cc1cc(Cl)c(Nc2nc3cnc(NC4CCCOCC4)nc3n2[C@H]2CC[C@@H](C(N)=O)CC2)c(Cl)c1 (stereo partly shown) [Example 555, (1s,4s)-4-(8-(2,6-dichloro-4-cyanophenylamino)-2-(oxepan-4-ylamino)-9H-purin-9-yl)cyclohexanecarboxamide] | < 0.25 µM |
| C[C@]1(C(N)=O)CC[C@@H](n2c(Nc3c(F)cc(F)cc3F)nc3cnc(NC4CCCC4)nc32)CC1 [Example 556, (1s,4s)-4-(2-(cyclopentylamino)-8-(2,4,6-trifluorophenylamino)-9H-purin-9-yl)-1-methylcyclohexanecarboxamide] | < 0.25 µM |
| C[C@]1(C(N)=O)CC[C@@H](n2c(Nc3c(F)cc(Cl)cc3Cl)nc3cnc(NC4CCCC4)nc32)CC1 [Example 557, (1s,4s)-4-(2-(cyclopentylamino)-8-(2,4-dichloro-6-fluorophenylamino)-9H-purin-9-yl)-1-methylcyclohexanecarboxamide] | < 0.25 µM |
| C[C@]1(C(N)=O)CC[C@@H](n2c(Nc3c(F)cc(F)cc3Cl)nc3cnc(NC4CCCC4)nc32)CC1 [Example 558, (1s,4s)-4-(8-(2-chloro-4,6-difluorophenylamino)-2-(cyclopentylamino)-9H-purin-9-yl)-1-methylcyclohexanecarboxamide] | < 0.25 µM |
| C[C@]1(C(N)=O)CC[C@@H](n2c(Nc3c(F)cc(Cl)cc3F)nc3cnc(NC4CCCC4)nc32)CC1 [Example 559, (1s,4s)-4-(8-(4-chloro-2,6-difluorophenylamino)-2-(cyclopentylamino)-9H-purin-9-yl)-1-methylcyclohexanecarboxamide] | 0.25 to 0.5 µM |
| C[C@]1(C(N)=O)CC[C@@H](n2c(Nc3c(Cl)cc(F)cc3Cl)nc3cnc(NC4CCCC4)nc32)CC1 [Example 560, (1s,4s)-4-(2-(cyclopentylamino)-8-(2,6-dichloro-4-fluorophenylamino)-9H-purin-9-yl)-1-methylcyclohexanecarboxamide] | 0.25 to 0.5 µM |
| C[C@]1(C(N)=O)CC[C@@H](n2c(Nc3c(Cl)cc(C#N)cc3Cl)nc3cnc(NC4CCCC4)nc32)CC1 [Example 561, (1s,4s)-4-(2-(cyclopentylamino)-8-(2,6-dichloro-4-cyanophenylamino)-9H-purin-9-yl)-1-methylcyclohexanecarboxamide] | < 0.25 µM |
| C[C@]1(C(N)=O)CC[C@@H](n2c(Nc3c(Cl)cc(C(F)(F)F)cc3Cl)nc3cnc(NC4CCCC4)nc32)CC1 [Example 562, (1s,4s)-4-(2-(cyclopentylamino)-8-(2,6-dichloro-4-(trifluoromethyl)phenylamino)-9H-purin-9-yl)-1-methylcyclohexanecarboxamide] | > 1 µM |
| C[C@]1(C(N)=O)CC[C@@H](n2c(Nc3c(F)cc(F)cc3F)nc3cnc(N[C@@H]4CCC[C@H](O)C4)nc32)CC1 [Example 563, (1S,4s)-4-(2-((1R,3S)-3-hydroxycyclohexylamino)-8-(2,4,6-trifluorophenylamino)-9H-purin-9-yl)-1-methylcyclohexanecarboxamide] | > 1 µM |
| C[C@]1(C(N)=O)CC[C@@H](n2c(Nc3c(F)cc(Cl)cc3Cl)nc3cnc(N[C@@H]4CCC[C@H](O)C4)nc32)CC1 [Example 564, (1S,4s)-4-(8-(2,4-dichloro-6-fluorophenylamino)-2-((1R,3S)-3-hydroxycyclohexylamino)-9H-purin-9-yl)-1-methylcyclohexanecarboxamide] | < 0.25 µM |
| C[C@]1(C(N)=O)CC[C@@H](n2c(Nc3c(Cl)cc(Cl)cc3Cl)nc3cnc(N[C@@H]4CCC[C@H](O)C4)nc32)CC1 [Example 565, (1S,4s)-4-(2-((1R,3S)-3-hydroxycyclohexylamino)-8-(2,4,6-trichlorophenylamino)-9H-purin-9-yl)-1-methylcyclohexanecarboxamide] | < 0.25 µM |
| C[C@]1(C(N)=O)CC[C@@H](n2c(Nc3c(F)cc(Cl)cc3F)nc3cnc(N[C@@H]4CCC[C@H](O)C4)nc32)CC1 [Example 566, (1S,4s)-4-(8-(4-chloro-2,6-difluorophenylamino)-2-((1R,3S)-3-hydroxycyclohexylamino)-9H-purin-9-yl)-1-methylcyclohexanecarboxamide] | 0.25 to 0.5 µM |
| C[C@]1(C(N)=O)CC[C@@H](n2c(Nc3c(Cl)cc(F)cc3Cl)nc3cnc(N[C@@H]4CCC[C@H](O)C4)nc32)CC1 [Example 567, (1S,4s)-4-(8-(2,6-dichloro-4-fluorophenylamino)-2-((1R,3S)-3-hydroxycyclohexylamino)-9H-purin-9-yl)-1-methylcyclohexanecarboxamide] | 0.5 to 1 µM |
| C[C@]1(C(N)=O)CC[C@@H](n2c(Nc3c(F)cc(C#N)cc3Cl)nc3cnc(N[C@@H]4CCC[C@H](O)C4)nc32)CC1 [Example 568, (1S,4s)-4-(8-(2-chloro-4-cyano-6-fluorophenylamino)-2-((1R,3S)-3-hydroxycyclohexylamino)-9H-purin-9-yl)-1-methylcyclohexanecarboxamide] | 0.25 to 0.5 µM |
| C[C@]1(C(N)=O)CC[C@@H](n2c(Nc3c(Cl)cc(C#N)cc3Cl)nc3cnc(N[C@@H]4CCC[C@H](O)C4)nc32)CC1 [Example 569, (1S,4s)-4-(8-(2,6-dichloro-4-cyanophenylamino)-2-((1R,3S)-3-hydroxycyclohexylamino)-9H-purin-9-yl)-1-methylcyclohexanecarboxamide] | < 0.25 µM |
| NC(=O)[C@H]1CC[C@@H](n2c(Nc3c(Cl)cc(C(F)(F)F)cc3Cl)nc3cnc(NC4CC5(COC5)C4)nc32)CC1 [Example 570, (1s,4s)-4-(2-(2-oxaspiro[3.3]heptan-6-ylamino)-8-(2,6-dichloro-4-(trifluoromethyl)phenylamino)-9H-purin-9-yl)cyclohexanecarboxamide] | > 1 µM |
| N#Cc1cc(Cl)c(Nc2nc3cnc(NC4CC5(COC5)C4)nc3n2[C@H]2CC[C@@H](C(N)=O)CC2)c(Cl)c1 [Example 571, (1s,4s)-4-(2-(2-oxaspiro[3.3]heptan-6-ylamino)-8-(2,6-dichloro-4-cyanophenylamino)-9H-purin-9-yl)cyclohexanecarboxamide] | 0.25 to 0.5 µM |
| N#Cc1cc(F)c(Nc2nc3cnc(NC4CC5(COC5)C4)nc3n2[C@H]2CC[C@@H](C(N)=O)CC2)c(Cl)c1 [Example 572, (1s,4s)-4-(2-(2-oxaspiro[3.3]heptan-6-ylamino)-8-(2-chloro-4-cyano-6-fluorophenylamino)-9H-purin-9-yl)cyclohexanecarboxamide] | 0.5 to 1 µM |
| N#Cc1cc(F)c(Nc2nc3cnc(NC4CC5(COC5)C4)nc3n2[C@H]2CC[C@@H](C(N)=O)CC2)c(F)c1 [Example 573, (1s,4s)-4-(2-(2-oxaspiro[3.3]heptan-6-ylamino)-8-(4-cyano-2,6-difluorophenylamino)-9H-purin-9-yl)cyclohexanecarboxamide] | > 1 µM |
| C[C@]1(C(N)=O)CC[C@@H](n2c(Nc3c(Cl)cc(Cl)cc3Cl)nc3cnc(NC4CCCC4)nc32)CC1 [Example 574, (1s,4s)-4-(2-(cyclopentylamino)-8-(2,4,6-trichlorophenylamino)-9H-purin-9-yl)-1-methylcyclohexanecarboxamide] | 0.25 to 0.5 µM |
| C[C@]1(C(N)=O)CC[C@@H](n2c(Nc3c(F)cc(C#N)cc3Cl)nc3cnc(NC4CCCC4)nc32)CC1 [Example 575, (1s,4s)-4-(8-(2-chloro-4-cyano-6-fluorophenylamino)-2-(cyclopentylamino)-9H-purin-9-yl)-1-methylcyclohexanecarboxamide] | < 0.25 µM |
| C[C@]1(C(N)=O)CC[C@@H](n2c(Nc3c(F)cc(F)cc3Cl)nc3cnc(N[C@@H]4CCC[C@H](O)C4)nc32)CC1 [Example 576, (1S,4s)-4-(8-(2-chloro-4,6-difluorophenylamino)-2-((1R,3S)-3-hydroxycyclohexylamino)-9H-purin-9-yl)-1-methylcyclohexanecarboxamide] | 0.25 to 0.5 µM |
| C[C@]1(C(N)=O)CC[C@@H](n2c(Nc3c(Cl)cc(C(F)(F)F)cc3Cl)nc3cnc(N[C@@H]4CCC[C@H](O)C4)nc32)CC1 [Example 577, (1S,4s)-4-(8-(2,6-dichloro-4-(trifluoromethyl)phenylamino)-2-((1R,3S)-3-hydroxycyclohexylamino)-9H-purin-9-yl)-1-methylcyclohexanecarboxamide] | > 1 µM |
| C[C@]1(C(N)=O)CC[C@@H](n2c(Nc3c(F)cc(F)cc3F)nc3cnc(NC4CC(F)(F)C4)nc32)CC1 [Example 578, (1s,4s)-4-(2-(3,3-difluorocyclobutylamino)-8-(2,4,6-trifluorophenylamino)-9H-purin-9-yl)-1-methylcyclohexanecarboxamide] | < 0.25 µM |
